Read-outs that look alike come from different tables or passages of the source.
How the values were obtained:
[1] = molecular target: hERG channel (Homo sapiens (Human), UniProt Q12809); test: hERG manual patch clamp test; assay type: cell-based
Procedure: The cells used in this test were the HEK293 cell line transfected with hERG cDNA and stably expressing the hERG channel (#60187, supplied by BPS, passages P3-P23 for experimental studies). The cells were cultured in a medium containing the following components: MEM medium containing 10% (v/v) inactivated fetal calf serum, 1 mM sodium pyruvate, 500 μg/ml geneticin, 0.1 mM non-essential amino acids, and 100 U/m1 penicillin/streptomycin. HEK293 hERG cells were grown in a culture dish containing the above-mentioned medium, cultured in a 37° C., 5% CO2 incubator, and passaged approximately three times per week, with the cell fusion rate between 40% and 80%. 24 to 48 hours prior to electrophysiological experiments, HEK293 hERG cells were transferred to 0.05 mg/ml PDL-pretreated slides, seeded at a density of 1×10^4 cells per well in a 48-well plate, and grown in the same medium and under the same culture conditions. The density of HEK293 hERG cells on each circular slide needs to reach the requirement that most cells are independent and individual. The extracellular fluid components used in the hERG assay were as follows (mM): 145 NaCl, 4 KCl, 2 CaCl2, 1 MgCl2, 10 glucose, and 10 HEPES (pH adjusted to 7.40 with NaOH). The intracellular fluid components were as follows (mM): 130 KCl, 2 MgCl2, 5 EGTA, 10 HEPES and 5 Na2ATP (pH adjusted to 7.25 with KOH). […] Prior to the experiment, the compound was first serially diluted with DMSO to prepare stock solutions at 10, 3, 1, 0.3, and 0.1 mM, which were then further diluted with extracellular fluid to achieve the final test concentrations (in μM). The final concentration of DMSO in compound solutions at various concentrations was between 0.1% and 0.3%. All compound solutions are routinely sonicated for 5 to 10 min and shaken sufficiently to ensure complete dissolution of the compound, and all test solutions are mixed well by rotation for at least 10 min.
Electrophysiological tests were performed using a manual patch clamp system (HEKA EPC-10 signal amplifier and digital conversion system, HEKA Electronics, Germany) for the recording of whole cell currents. The specific test method was described as follows: Circular slides with […] hERG cells growing on the surface were placed in an electrophysiological recording chamber under an inverted microscope. The recording chamber was continuously perfused with extracellular fluid (at approximately 1 mL/min). The conventional whole-cell patch-clamp technique was employed for current recordings throughout the experiment. If not specified, the experiments were carried out at normal room temperature (about 25° C.). The cells were clamped at −80 mV. The cell clamp voltage was depolarized to +30 mV to activate the hERG potassium channel, and then clamped to −50 mV after 5 seconds to eliminate inactivation and produce a tail current. The peak tail current value was used as a value for the magnitude of the hERG current. The potassium current of hERG recorded in the above steps was stabilized by continuous extracellular fluid perfusion in the recording chamber, and the drug to be tested was continuously perfused until the inhibitory effect of the drug on hERG currents had stabilized. The coincidence of the most recent three consecutive current recording traces was typically taken as the criteria for determining whether steady-state conditions were achieved.
Dose-response curves of the test compounds were plotted with % hERG inhibition rate as the y-axis and test compound concentration as the x-axis, to calculate the IC50 values.

[2] = system: OVCAR-3 cells; test: OVCAR-3 cell proliferation (Cell Titer-Glo, 10 days); assay type: cell-based, human
How it was run: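 IC50 was fitted by nonlinear regression of percent inhibition versus the 0.1% DMSO control. Luminescence was read with Cell Titer-Glo after 10 days of co-culture of logarithmic-phase cells (400/well) with compound at 0.12 nM–10 μM final, in medium with 20% fetal bovine serum and 0.01 mg/mL insulin.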

[3] = PK study in ICR mice; assay type: in vivo, mouse; conditions: both sexes, mouse, plasma, route and dose not given
Procedure: 6 ICR mice (male/female) were divided into two groups, administered orally and intravenously, respectively, with 3 mice/group. The mice were fasted for 10-14 hours prior to dosing with free access to water.
The test compound was weighed according to the administration dose, and prepared into a dose formulation at appropriate concentrations (for rats and mice, intravenous and oral administration at a volume of 5 mL/kg and 10 mL/kg, respectively), wherein the intravenous injection was a clear solution, and the oral preparation was a clear solution or a homogeneous suspension.
Animals were dosed by intravenous injection and oral gavage, and blood samples were collected at 0.033, 0.083, 0.25, 0.5, 1, 2, 4, 8, and 24 h after intravenous administration and 0.083, 0.25, 0.5, 1, 2, 4, 6, 8, and 24 h after oral administration. Whole blood was centrifuged at 6800 g for 6 min at 4° C. and the top plasma was stored in a −80° C. freezer for later analysis.
The DMSO stock solution of the test compound was diluted into a series of working solutions with a methanol or an acetonitrile solution, and added to a blank plasma matrix, and standard curves were generated and quality control samples were prepared. An appropriate volume of the plasma sample was taken and a suitable multiple of methanol or acetonitrile containing an internal standard was added for protein precipitation based on the response. After centrifugation of all samples at 18000 g for 10 min at 4° C., an appropriate amount of supernatant was taken for LC-MS/MS injection analysis.
Drug concentration-time curves in plasma were plotted according to test concentrations, and pharmacokinetic parameters were calculated using noncompartmental analysis by WinNonlin software, including: half-life (T½), area under the concentration-time curve from time zero to time t (AUCO-t), clearance (CL), volume of distribution at steady state (Vss) and bioavailability (F), with some of the test results shown in Table 4.

[4] = system: HCC1395 cells; test: HCC1395 cell proliferation (Cell Titer-Glo, 6 days); assay type: cell-based; conditions: KIF18A-insensitive tumor cells
Procedure: (§1) The inhibitory effect on the KIF18A target by the compounds of the present disclosure was evaluated by testing the inhibitory effect on proliferation of HCC1954 and HCC1395 cells by the compounds of the present disclosure.
(§2) HCC1954 (ATCC, CRL-2388) and HCC1395 (ATCC, CRL-2324) cells were cultured separately in RPMI-1640 complete medium (Gibco, A1049101) containing 20% fetal bovine serum (Gibco, 10099141C), 100 U penicillin, and 100 μg/mL streptomycin (Gibco, 15140-122). The Promega kit Cell Titer-Glo (Promega: G7572) was used in this method for test. • 1. HCC1954 (KIF18A-sensitive tumor cells) and HCC1395 (KIF18A-insensitive tumor cells) were cultured separately in T75 cell culture flasks (Corning, 430641), and the medium was placed in a 37° C., 5% CO2 incubator. • 2. When the cell density reached 70% to 80% (about 2 to 3 times per week), cells are passaged with trypsin (0.25% EDTA). • 3. The cell culture flask was taken out and the cells were separated by adding 2 mL of trypsin (0.25% EDTA source) for 5 minutes. • 4. Digestion was stopped by adding 8 mL of RPM1-1640 medium and the cell suspension was transferred to a centrifuge tube and centrifuged at 1000 rpm for 5 minutes. • 5. The cells were resuspended with 5 mL of RPMI-1640 medium. Cell density was adjusted to 5×10^3/mL (HCC1954), and 2.5×10^4/mL (HCC1395), respectively. • 6. 40 μL of cell solution was added to the 384-well plate (Corning, 3765). • 7. The 384-well plate was centrifuged at 1000 rpm for 1 minute. • 8. The cells were cultured overnight in a 37° C., 5% CO2 incubator. • 9. The next day, 40 nL of compound solution was added to the 384-well plate using Echo650. The plate was then placed in a 37° C., 5% CO2 incubator for 6 days. • 10. After 6 days, 20 μL of Cell-Titer-Glo (Promega, G7572) reagent was added per well. • 11. Luminescence values were measured using the EnVision Xcite Multilabel Reader (PerkinElmer, 2105-0020).
(§3) The percentage of inhibition of cell proliferation by the test compound at each concentration was calculated by comparing with the values of the control group (0.1% DMSO). The IC50 values of the compounds were obtained by concentration-inhibition rate nonlinear regression analysis of the test compounds using GraphPad Prism 9.

[5] = molecular target: KIF18A (Homo sapiens (Human), UniProt Q8NI77); test: KIF18A ATPase activity under tubulin stimulation (ADP-Glo assay); assay type: biochemical; conditions: KIF18A 30 nM, ATP 150 μM, pig microtubules
[6] = system: HCC1954 cells; test: HCC1954 cell proliferation (Cell Titer-Glo, 6 days); assay type: cell-based; conditions: KIF18A-sensitive tumor cells
Procedure: as §1, §2, §3

Chain of KIF18A (Q8NI77 whole entry): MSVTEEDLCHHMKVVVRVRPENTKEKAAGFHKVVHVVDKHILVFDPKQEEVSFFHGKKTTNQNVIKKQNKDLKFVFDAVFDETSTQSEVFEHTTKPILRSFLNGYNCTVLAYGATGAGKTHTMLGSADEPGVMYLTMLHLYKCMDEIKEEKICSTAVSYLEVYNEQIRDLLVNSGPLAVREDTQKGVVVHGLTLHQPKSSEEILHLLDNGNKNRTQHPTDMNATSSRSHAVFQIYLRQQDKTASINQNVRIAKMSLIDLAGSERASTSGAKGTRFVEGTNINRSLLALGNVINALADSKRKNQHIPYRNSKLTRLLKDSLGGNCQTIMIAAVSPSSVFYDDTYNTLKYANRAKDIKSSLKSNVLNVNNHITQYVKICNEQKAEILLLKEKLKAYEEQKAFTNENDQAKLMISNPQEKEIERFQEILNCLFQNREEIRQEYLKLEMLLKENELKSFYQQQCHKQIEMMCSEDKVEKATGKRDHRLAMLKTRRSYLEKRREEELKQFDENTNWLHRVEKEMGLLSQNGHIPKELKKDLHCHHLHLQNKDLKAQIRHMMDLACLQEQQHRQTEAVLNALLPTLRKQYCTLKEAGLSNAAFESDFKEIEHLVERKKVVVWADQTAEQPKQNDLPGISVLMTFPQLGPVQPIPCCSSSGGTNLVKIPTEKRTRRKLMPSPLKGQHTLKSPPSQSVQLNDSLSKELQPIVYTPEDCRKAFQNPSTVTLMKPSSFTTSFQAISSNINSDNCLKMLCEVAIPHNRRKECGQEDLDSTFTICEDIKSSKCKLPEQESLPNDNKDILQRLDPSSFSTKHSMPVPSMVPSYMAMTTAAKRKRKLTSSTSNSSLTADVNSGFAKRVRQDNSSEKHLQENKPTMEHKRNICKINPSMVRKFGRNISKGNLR
Chain of KIF18A (P02550 whole entry partner): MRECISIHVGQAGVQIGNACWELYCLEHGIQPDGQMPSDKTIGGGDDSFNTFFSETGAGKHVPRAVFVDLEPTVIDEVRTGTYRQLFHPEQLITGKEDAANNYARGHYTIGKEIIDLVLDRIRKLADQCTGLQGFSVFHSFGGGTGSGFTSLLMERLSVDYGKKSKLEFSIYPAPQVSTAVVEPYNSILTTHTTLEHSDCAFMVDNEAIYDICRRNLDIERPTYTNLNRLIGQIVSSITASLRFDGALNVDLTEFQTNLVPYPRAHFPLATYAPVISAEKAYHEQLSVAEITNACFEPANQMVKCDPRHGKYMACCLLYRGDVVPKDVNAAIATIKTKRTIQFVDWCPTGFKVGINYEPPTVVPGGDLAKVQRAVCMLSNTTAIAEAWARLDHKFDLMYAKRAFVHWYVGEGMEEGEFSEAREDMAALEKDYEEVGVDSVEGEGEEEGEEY
Chain of KIF18A (P02554 whole entry partner): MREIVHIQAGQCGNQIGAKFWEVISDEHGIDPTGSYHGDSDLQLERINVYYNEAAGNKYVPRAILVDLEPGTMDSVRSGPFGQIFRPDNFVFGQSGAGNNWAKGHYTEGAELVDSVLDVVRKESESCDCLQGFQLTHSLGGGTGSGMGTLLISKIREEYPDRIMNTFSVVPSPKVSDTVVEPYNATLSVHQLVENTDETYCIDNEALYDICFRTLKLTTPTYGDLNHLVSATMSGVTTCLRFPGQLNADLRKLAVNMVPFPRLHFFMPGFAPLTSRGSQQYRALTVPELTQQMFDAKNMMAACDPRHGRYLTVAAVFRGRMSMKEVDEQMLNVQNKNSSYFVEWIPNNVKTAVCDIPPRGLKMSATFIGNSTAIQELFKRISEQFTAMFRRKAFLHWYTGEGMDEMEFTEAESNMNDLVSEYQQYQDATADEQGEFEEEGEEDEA
Chain of hERG channel (Q12809 whole entry, the tested form may be a part): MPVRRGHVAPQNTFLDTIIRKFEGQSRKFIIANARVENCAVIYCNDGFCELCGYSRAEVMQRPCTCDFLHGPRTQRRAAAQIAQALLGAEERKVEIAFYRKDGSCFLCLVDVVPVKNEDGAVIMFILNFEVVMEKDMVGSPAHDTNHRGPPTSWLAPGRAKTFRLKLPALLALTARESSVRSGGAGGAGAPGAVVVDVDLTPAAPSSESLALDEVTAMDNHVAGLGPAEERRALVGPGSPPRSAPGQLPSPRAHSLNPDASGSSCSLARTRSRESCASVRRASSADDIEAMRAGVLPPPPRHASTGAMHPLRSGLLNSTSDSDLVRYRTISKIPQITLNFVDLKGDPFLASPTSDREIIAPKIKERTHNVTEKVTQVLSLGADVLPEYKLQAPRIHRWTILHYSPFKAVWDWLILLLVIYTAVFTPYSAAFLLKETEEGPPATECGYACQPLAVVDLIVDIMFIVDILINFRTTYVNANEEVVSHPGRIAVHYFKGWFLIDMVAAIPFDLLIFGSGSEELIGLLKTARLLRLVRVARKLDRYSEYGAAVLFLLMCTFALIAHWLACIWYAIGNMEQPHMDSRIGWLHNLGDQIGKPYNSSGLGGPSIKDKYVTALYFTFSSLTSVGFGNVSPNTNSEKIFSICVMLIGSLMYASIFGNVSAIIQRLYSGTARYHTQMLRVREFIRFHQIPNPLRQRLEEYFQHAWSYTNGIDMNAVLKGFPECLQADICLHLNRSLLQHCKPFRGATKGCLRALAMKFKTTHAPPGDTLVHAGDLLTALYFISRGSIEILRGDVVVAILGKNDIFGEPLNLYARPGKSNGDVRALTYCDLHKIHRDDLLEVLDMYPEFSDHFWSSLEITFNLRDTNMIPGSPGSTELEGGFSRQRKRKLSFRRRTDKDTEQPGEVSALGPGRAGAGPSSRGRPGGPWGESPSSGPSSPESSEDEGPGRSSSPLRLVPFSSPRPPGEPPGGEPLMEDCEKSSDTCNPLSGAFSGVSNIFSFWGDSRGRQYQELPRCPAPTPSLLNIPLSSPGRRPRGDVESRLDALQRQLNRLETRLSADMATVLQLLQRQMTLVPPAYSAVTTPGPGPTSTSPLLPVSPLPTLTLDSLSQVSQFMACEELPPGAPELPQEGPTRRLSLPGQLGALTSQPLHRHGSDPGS

| IC50 ([2]; Homo sapiens, OVCAR-3, 240 h) [nM] | IC50 ([4]; Homo sapiens, HCC1395, 144 h) [nM] | IC50 [5] [nM] | IC50 ([6]; Homo sapiens, HCC1954, 144 h) [nM] | IC50 [4] [nM] | IC50 [6] [nM] | IC50 [2] [nM] | SMILES | IC50 [1] [nM] | AUC ([3]; read-out: AUC) [ng·h/mL] | Cmax ([3]; read-out: Cmax) [ng/mL] |
| --- | --- | --- | --- | --- | --- | --- | --- | --- | --- | --- |
| – | – | ≤ 50 | – | > 5000 | 10 to 500 | ≤ 50 | CC1OCCn2c1cc1c(NC(=O)c3ccc(NS(=O)(=O)CCO)cc3N3CCC4(CC3)CC4)cccc12 (stereo not shown) [Example 311, 4-((2-hydroxyethyl)sulfonamido)-N-(1-methyl-3,4-dihydro-1H-[1,4]oxazinyl[4,3-a]indol-9-yl)-2-(6-azaspiro[2.5]oct-6-yl)benzamide] | – | – | – |
| – | – | ≤ 50 | – | > 5000 | 10 to 500 | 50 to 500 | O=C(Nc1cccc2nn(CC3CC3)cc12)c1ccc(NS(=O)(=O)CCO)cc1N1CCC2(CC1)CC2 [Example 269] | – | – | – |
| ≤ 50 | > 5000 | 50 to 500 | 10 to 500 | – | – | – | COC1c2cc3c(NC(=O)c4ccc(NS(=O)(=O)CCO)cc4N4CCC5(CC4)CC5)cccc3n2CCC1(F)F (stereo not shown) [Example 340, N-(8,8-difluoro-9-methoxy-6,7,8,9-tetrahydropyridino[1,2-a]indol-1-yl)-4-((2-hydroxyethyl)sulfonamido)-2-(6-azaspiro[2.5]oct-6-yl)benzamide] | – | – | – |
| ≤ 50 | > 5000 | 50 to 500 | ≤ 10 | – | – | – | Cc1cc(NC(=O)c2c(N)cc(NS(=O)(=O)CCO)cc2N2CCC3(CC2)CC3)nc(N2CCC(F)(F)CC2)n1 [Example 3, 2-amino-N-(2-(4,4-difluoropiperidin-1-yl)-6-methylpyrimidin-4-yl)-4-(2-hydroxyethylsulfonamido)-6-(6-azaspiro[2.5]octan-6-yl)benzamide] | – | – | – |
| – | – | ≤ 50 | – | > 5000 | 10 to 500 | 50 to 500 | O=C(Nc1cccc2c1ccn2CC1CC1)c1ccc(NS(=O)(=O)CCO)cc1N1CCC2(CC1)CC2 [Example 9, N-(1-(cyclopropylmethyl)-1H-indole-4-(2-hydroxyethyl)sulfonamido)-2-(6-azaspiro[2.5]octan-6-yl)benzamide] | – | – | – |

More lines, now with the values behind:

| SMILES | IC50 ([2]; Homo sapiens, OVCAR-3, 240 h) [nM] | IC50 ([4]; Homo sapiens, HCC1395, 144 h) [nM] | IC50 [5] [nM] | IC50 ([6]; Homo sapiens, HCC1954, 144 h) [nM] | IC50 [4] [nM] | IC50 [6] [nM] | IC50 [2] [nM] | IC50 [1] [nM] | AUC ([3]; read-out: AUC) [ng·h/mL] | Cmax ([3]; read-out: Cmax) [ng/mL] |
| --- | --- | --- | --- | --- | --- | --- | --- | --- | --- | --- |
| COc1ccc(NC(=O)c2ccc(NS(=O)(=O)CCO)cc2N2CCC3(CC2)CC3)c2cc3n(c12)CCC(F)(F)C3 [Example 478, N-(8,8-difluoro-4-methoxy-6,7,8,9-tetrahydropyridino[1,2-a]indol-1-yl)-4-(2-hydroxyethylsulfonamido)-2-(6-azaspiro[2.5]octan-6-yl)benzamide] | ≤ 50 | – | – | – | – | – | – | 8000 | 48500 | 6020 |
| O=C(Nc1ccc(F)c2c1ccn2CC1CC1)c1ccc(NS(=O)(=O)CCO)cc1N1CCC2(CC1)CC2 [Example 56, N-(1-(cyclopropylmethyl)-7-fluoro-1H-indol-4-yl)-4-((2-hydroxyethyl)sulfonamido)-2-(6-azaspiro[2.5]octan-6-yl)benzamide] | 50 to 500 | > 5000 | 50 to 500 | 10 to 500 | – | – | – | – | – | – |
| O=C(Nc1cccc2c1oc(=O)n2CC1CC1)c1ccc(NS(=O)(=O)CCO)cc1N1CCC2(CC1)CC2 [Example 18, N-(3-(cyclopropylmethyl)-2-oxo-2,3-dihydrobenzo[d]oxazol-7-yl)-4-((2-hydroxyethyl)sulfonamido)-2-(6-azaspiro[2.5]oct-6-yl)benzamide] | 50 to 500 | > 5000 | ≤ 50 | > 5000 | – | – | – | – | – | – |
| O=C(Nc1ccnc2c1cc1n2CCOC1)c1ccc(NS(=O)(=O)CCO)cc1N1CCC2(CC1)CC2 [Example 303, N-(8,9-dihydro-6H-pyrido[3′,2′:4,5]pyrrolo[2,1-c][1,4]oxazin-4-yl)-4-((2-hydroxyethyl)sulfonamido)-2-(6-azaspiro[2.5]octan-6-yl)benzamide] | 50 to 500 | > 5000 | ≤ 50 | 10 to 500 | – | – | – | – | – | – |
| O=C(Nc1ccc(F)c2c1cc1n2CCOC1)c1ccc(NS(=O)(=O)CCO)cc1N1CCC2(CC1)CC2 [Example 305, N-(6-fluoro-3,4-dihydro-1H-[1,4]oxazino[4,3-a]indol-9-yl)-4-((2-hydroxyethyl)sulfonamido)-2-(6-azaspiro[2.5]oct-6-yl)benzamide] | 50 to 500 | > 5000 | ≤ 50 | 10 to 500 | – | – | – | – | – | – |
